Measured values as given in patent publication EP0695187B1, “INHIBITION, CONTROL AND REGRESSION OF ANGIOGENESIS WITH HYALURONIC ACID OR HYALURONIC ACID AND NSAID” (JAGOTEC AG, priority 1993, dated 1994).
Several values for one entry are separate records, joined by “and”; a condition that tells them apart may be missing. Identical values can stand only once.

Key:
Format in all cases: in vivo, mice
[1] = system: vasculature within the murine chronic granulomatous air pouch; assay: murine chronic granulomatous air pouch, carmine vascular cast; dosing daily from induction for 6 days; details: for effect on the tissue vascularity: daily
Method: The Applicants chose a simple model of murine angiogenesis induced with a chronic granulomatous reaction to Freund's complete adjuvant in croton oil. The Applicants assessed this process using a modification of this method by the formation of an intravascular cast incorporating carmine red. Chronic granulomatous air pouches were induced by the sc injection of 3 ml air into anaesthetized mice (25-30 g, Tuck Original) and 0.5 ml Freund's complete adjuvant with 0.1% croton oil 24 hours later. The mice were dosed for 6 days and the vascular content assessed by the formation of a vascular cast. This was formed by the intravenous injection of 1 ml 25% carmine red in 10% gelatin at 40°C into warmed mice. This overcame any pharmacological or temperature-related alterations in peripheral vasomotor tone which may have invalidated the results. The carcasses were chilled and the granulomatous air pouch linings dissected. These were dried at 56°C, weighed, and papain digested. The dye was then be dissolved by the addition of 1 ml 0.05 M NaOH, and the samples were then centrifuged at 2500 g for 20 minutes. After these were filtered, the absorbances were read at 490 nm using a multiwell plate reader (Biotek). The results were then expressed as either µg dye/mg dry weight of tissue. […] On the seventh day after induction the vascularity of the tissue was assessed. […] The formation of a subcutaneous air pouch in the dorsum of mice allows the formation of a lining which responds to produce a chronic inflammatory lesion in response to various antigens, irritants and foreign bodies. It can also be used for the introduction of drugs and various other treatments into the site of inflammation and the collection of inflammatory exudate. […] For this experiment female mice (TO. 25-30g, 10 per group) were lightly anesthetized with hypnorm/hypnoval. Air pouches were formed by the subcutaneous injection of 3 ml of filter-sterilized air, into the dorsum of each mouse. After 24 hours, chronic inflammation was induced in the air pouch lining by the injection of 0.5 ml Freund's complete adjuvant (FCA) supplemented with 0.1% croton oil. Animals were dosed daily from the time o: injection of FCA/croton oil, for 6 Days. At which point the analysis was performed. […] Each mouse was then placed into a water jacketed incubation chamber at 37°C and injected i.v. with 1 ml of 15% carmine dye in 10% gelatin (in Hanks balanced salt solution) with syringe and solution prewarmed to 40°C. Cadavers were then chilled at 4°C for 4 hours. The granulomatous tissue was dissected free and dried in an oven at 56°C for 48 hours. The dried granuloma was weighed and then digested in 9 ml of papain solution (12-Units/ml in 0.05 M phosphate buffer, pH 7.0, supplemented with 0.33g/l N-acetyl cysteine), at 56°C for 48 hours. The digests were then made up to 10 ml with 5.0M NaOH and vortexed, to solubilise the dye and centrifuged. The digests were filtered through 0.2µm cellulose nitrate membranes and […] samples aliquoted into 96 well plates and analyzed for dye content by spectrophotometric analysis at […] using a microplate reader. Vascular volume was calculated as carmine content per mg dry mass of tissue.

[2] = system: vasculature within the murine chronic granulomatous air pouch; assay: further protocol: air pouch granuloma grown 7 days untreated, then topical daily treatment (regression); details: for VI: mean vascularity index; for Carmine / Dry wt. gran.: mean
Method: In another protocol, the use of the air pouch on the mice was once again employed. Only this time, after formation of the pouches and injection of .5 ml Freund's complete adjuvant (FCA) supplemented with 0.1% croton oil, the granuloma in the mice were permitted to grow for 7 days (they were left unhealed for 1 week). […] The granulomatous tissue was dissected and treated as previously described. The weight of the granuloma (including the carmine red dye) and weight of the carmine red dye (which displaced the blood) were determined for each mouse sacrificed at each stage (after 7, 14 and 21 days). The vascularity index (VI) was calculated and the mean vascularity index was calculated for each group as follows: Vascularity Index (VI) =(weight of carmine red dye in GRANULOMA)/(Weight of GRANULOMA (including carmine red dye)) [formula]

[3] = system: vasculature within the murine chronic granulomatous air pouch; assay: murine chronic granulomatous air pouch, carmine vascular cast; dosing daily from induction for 6 days; details: Topical, n = 8 (Table Three summary)
[4] = i-pouch, n = 10 (Table Three summary)
[5] = intra-pouch injection, daily 6 days, group mean, N = 10
[6] = 2 week (one week of topical application)
[7] = 3 week (two weeks of topical application)

O=C(O)Cc1ccccc1Nc1c(Cl)cccc1Cl [diclofenac (diclo), Diclofenac] was tested, and the “Carmine dye (ug) Mean” value [1, 4] was 92.6 µg, the “ug.dye/mg.gramuloma Mean” value [1, 4] was 0.7363 ug.dye/mg.gramuloma and the “effect on the tissue vascularity” value ([1]; intra-lesional injection, assessed on seventh day (Figure 1(b))) was “no significant effect”. The “Absorbness / Absorbous” value ([1]; intra-pouch injection, daily 6 days, absorbance at 490 nm of digest, individual animals, listed as Saline + diclo) was 0.773 and 0.242 and 0.730 and 0.400 and 0.409 and 0.262 and 0.402 and 0.468, the ug dye mg ([1]; intra-pouch injection, daily 6 days, carmine per mg dry tissue, individual animals, listed as Saline + diclo) was 1.194 ug dye mg and 0.320 ug dye mg and 1.577 ug dye mg and 1.050 ug dye mg and 0.674 ug dye mg and 0.442 ug dye mg and 0.526 ug dye mg and 0.471 ug dye mg and 0.586 ug dye mg and 0.520 ug dye mg and the “Dry wt” value ([1]; intra-pouch injection, daily 6 days, dried granuloma, individual animals, listed as Saline + diclo) was 158 mg and 99 mg (2×) and 124 mg and 162 mg and 170 mg and 122 mg. For the same compound, the ug carmine [1, 5] was 92.75 µg, the ug dye mg [1, 5] was 0.7363 ug dye mg and the ug carmine ([1]; intra-pouch injection, daily 6 days, individual animals, listed as Saline + diclo) was 166 µg and 50.5 µg and 156 µg and 104 µg and 86.7 µg and 54.8 µg and 85.2 µg and 63.7 µg and 99.5 µg and 61.3 µg. For the same compound, the “effect on the tissue vascularity” value ([1]; topical, assessed on seventh day (Figure 1(a))) was “no significant effect”, the “VI” value ([2]; 2 week (one week of topical application), listed as Diclo Alone) was 1.3 µg/mg and the “VI” value ([2]; 2 week (one week of topical application), listed as aq. cream/Diclo) was 1.300 µg/mg. The “Carmine” value [2, 6] was 108.63 µg, the “Dry wt. gran.” value [2, 6] was 84.41 mg and the “Carmine” value [2, 7] was 150.07 µg. For the same compound, the “Dry wt. gran.” value [2, 7] was 112.19 mg, the “Carmine dye (ug) Mean” value [3] was 187.3 µg and the “Granuloma dry wt.(mg) Mean” value [3] was 166.3 mg. For the same compound, the “ug.dye/mg.gramuloma Mean” value [3] was 1.216 ug.dye/mg.gramuloma.
